Values of other authors, collected in publication PMC3136501 (PLoS ONE, 2011).

System: OCTs
Conditions: high-affinity interaction with OCTs; cited from earlier work

IC50 (interaction with OCTs), low nanomolar range:
C[C@H](Cn1cnc2c(N)ncnc21)OCP(=O)(O)O [Tenofovir]
Nc1ccn([C@@H]2CS[C@H](CO)O2)c(=O)n1 [Lamivudine]
Nc1nc(NC2CC2)c2ncn([C@H]3C=C[C@@H](CO)C3)c2n1 [Abacavir]
Nc1nc(=O)n([C@@H]2CS[C@H](CO)O2)cc1F [Emtricitabine]
Cc1cn([C@H]2C[C@H](N=[N+]=[N-])[C@@H](CO)O2)c(=O)[nH]c1=O [Azidothymidine]
